Assay results as given in article PMC4552448 (Journal of medicinal chemistry, 2015).

Assays:
Format in all cases: cell-based
HeLa cells = test: NKG2D and DNAM-1 ligand surface expression, IF and flow cytometry; conditions: data not shown
[1] = test system: RD rhabdomyosarcoma cells; test: Growth inhibition, MTT, RD; conditions: Rhabdomyosarcoma cell, 48 h, read-out: IC50 ± SD RD
[2] = test system: OVCAR-8 ovarian carcinoma cells; test: Growth inhibition of OVCAR-8 cells; conditions: Homo sapiens, OVCAR-8, 96 h, read-out: IC50 ± SD OVCAR-8
[3] = test system: HepG2 hepatocellular carcinoma cells; test: Growth inhibition, MTT, HepG2; conditions: Homo sapiens, HepG2, 48 h, read-out: IC50 ± SD HepG2

| Structure (SMILES) | induction of the NKG2D and DNAM-1 ligands (HeLa cells) | IC50 [1] | IC50 [2] | IC50 [3] |
| --- | --- | --- | --- | --- |
| COc1cc(C(=O)c2ccn(-c3cccc(N)c3)c2)cc(OC)c1OC [(1-(3-aminophenyl)-1H-pyrrol-3-yl)(3,4,5-trimethoxyphenyl)-methanone] | unable to induce |  |  |  |
| CC(=O)O[C@H]1C(=O)[C@@]2(C)[C@H]([C@H](OC(=O)c3ccccc3)[C@]3(O)C[C@H](OC(=O)[C@H](O)[C@@H](NC(=O)c4ccccc4)c4ccccc4)C(C)=C1C3(C)C)[C@]1(OC(C)=O)CO[C@@H]1C[C@@H]2O [PTX, Paclitaxel] |  | > 10000 nM |  |  |
| CC[C@]1(O)C[C@@H]2CN(CCc3c([nH]c4ccccc34)[C@@](C(=O)OC)(c3cc4c(cc3OC)N(C)[C@H]3[C@@](O)(C(=O)OC)[C@H](OC(C)=O)[C@]5(CC)C=CCN6CC[C@]43[C@@H]65)C2)C1 [VBL, vinblastine] |  | 53 ± 2.5 nM | 15 ± 7 nM | 81 ± 2.4 nM |
